Data as given in patent US20250186391A1, “ORAL COMPLEMENT FACTOR D INHIBITORS” (BioCryst Pharmaceuticals, Inc., priority 2019, published 2025).

Each compound was assayed against Factor D (Homo sapiens (Human), UniProt P00746) (assay: Factor D esterolytic assay). Settings: Z-Lys-SBzl substrate, 100 mM HEPES, 500 mM NaCl, pH 7.5, 10% DMSO; tested a minimum of three times; read-out: Measured Ki (IC50) Value for Compounds: IC50.
Format: biochemical
Summary of the method: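 Chromogenic thioesterase read-out: Z-Lys-SBzl (1.29 mM) hydrolysis by human Factor D, thiol detected with DTNB at 405 nm (690 nm background subtracted) for 600 s. Run in 100 mM HEPES, 500 mM NaCl, pH 7.5, 10% DMSO, substrate added immediately or after room-temperature preincubation. IC50 from percent inhibition versus enzyme alone, n≥3.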

Sequence of Factor D (P00746 26-253): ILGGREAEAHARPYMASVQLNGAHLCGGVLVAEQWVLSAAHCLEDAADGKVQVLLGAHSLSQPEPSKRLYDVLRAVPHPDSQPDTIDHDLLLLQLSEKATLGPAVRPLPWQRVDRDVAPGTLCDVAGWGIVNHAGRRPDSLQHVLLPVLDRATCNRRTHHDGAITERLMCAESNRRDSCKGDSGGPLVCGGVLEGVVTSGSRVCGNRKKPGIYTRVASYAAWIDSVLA

Row | SMILES | IC50
1 | NCc1cc(F)cc(-c2ccc3occ(COc4ccccc4CC(=O)O)c3c2)c1 [Compound 40c, 2-(2-((5-(3-(aminomethyl)-5-fluorophenyl)benzofuran-3-yl)methoxy)phenyl)acetic acid] | < 1000 nM
2 | NCc1nccc(-c2cc(COc3ccccc3CC(=O)O)cc3cc(COc4ccccc4CC(=O)O)oc23)c1F [Compound 28d, 2,2′-((((7-(2-(aminomethyl)-3-fluoropyridin-4-yl)benzofuran-2,5-diyl)bis(methylene))bis(oxy))bis(2,1-phenylene))diacetic acid] | < 1000 nM
3 | NCc1cccc(-c2cc(NC3CCCC3)c3occ(COc4ccccc4CC(=O)O)c3c2)c1 [Compound 188d, 2-(2-((5-(3-(aminomethyl)phenyl)-7-(cyclopentylamino)benzofuran-3-yl)methoxy)phenyl)acetic acid] | < 1000 nM
4 | NCc1cc(-c2ccc3occ(COc4ccccc4CC(=O)O)c3c2)ccn1 [Compound 53b, 2-(2-((5-(2-(aminomethyl)pyridin-4-yl)benzofuran-3-yl)methoxy)phenyl)acetic acid] | < 1000 nM
5 | NCc1cccc(-c2ccc3cccc(COc4ccccc4CC(=O)O)c3c2)c1 [Compound 100d, 2-(2-((7-(3-(aminomethyl)phenyl)naphthalen-1-yl)methoxy)phenyl)acetic acid] | < 1000 nM
6 | NCc1cccc(-c2cc3cccc(COc4ccccc4CC(=O)O)c3o2)c1 [Compound 98g, 2-(2-((2-(3-(aminomethyl)phenyl)benzofuran-7-yl)methoxy)phenyl)acetic acid] | < 1000 nM
7 | NCc1cccc(-c2cccc3cc(COc4ccccc4CCC(=O)O)ccc23)c1 [Compound 43c, 3-(2-((5-(3-(aminomethyl)phenyl)naphthalen-2-yl)methoxy)phenyl)propanoic acid] | > 10000 nM
8 | CC(C)c1oc2ccc(-c3cccc(CN)c3)cc2c1COc1ccccc1CC(=O)O [Compound 142e, 2-(2-((5-(3-(aminomethyl)phenyl)-2-isopropylbenzofuran-3-yl)methoxy)phenyl)acetic acid] | < 1000 nM
9 | NCc1cccc(-c2cc(-c3cccc(CN)c3)c3oc(C(=O)O)c(COc4ccccc4CC(=O)O)c3c2)c1 [Compound 58f, 5,7-bis(3-(aminomethyl)phenyl)-3-((2-(carboxymethyl)phenoxy)methyl)benzofuran-2-carboxylic acid] | < 1000 nM
10 | NCc1cccc(-c2cc(COc3ccccc3CC(=O)O)cc3cc(COc4ccccc4CC(=O)O)oc23)c1 [Compound 7f, 2,2′-((((7-(3-(aminomethyl)phenyl)benzofuran-2,5-diyl)bis(methylene))bis(oxy))bis(2,1-phenylene))diacetic acid] | < 1000 nM
11 | NCc1cccc(-c2ccc3occ(COc4cc(C(=O)O)ccc4CC(=O)O)c3c2)c1 [Compound 158d, 3-((5-(3-(aminomethyl)phenyl)benzofuran-3-yl)methoxy)-4-(carboxymethyl)benzoic acid] | < 1000 nM
12 | Cc1ncc(-c2cc(-c3cccc(CN)c3)cc3c(COc4ccccc4CC(=O)O)coc23)cn1 [Compound 165c, 2-(2-((5-(3-(aminomethyl)phenyl)-7-(2-methylpyrimidin-5-yl)benzofuran-3-yl)methoxy)phenyl)acetic acid] | < 1000 nM
13 | NCc1cccc(-c2cc(COc3ccccc3CC(=O)O)cc3cc(COc4ccccc4CC(=O)O)oc23)c1F [Compound 13b, 2,2′-((((7-(3-(aminomethyl)-2-fluorophenyl)benzofuran-2,5-diyl)bis(methylene))bis(oxy))bis(2,1-phenylene))diacetic acid] | < 1000 nM
14 | Cc1cccc(CC(=O)O)c1OCc1coc2ccc(-c3cccc(CN)c3)cc12 [Compound 107d, 2-(2-((5-(3-(aminomethyl)phenyl)benzofuran-3-yl)methoxy)-3-methylphenyl)acetic acid] | < 1000 nM
15 | NCc1cccc(-c2cc(CO)cc3cc(COc4ccccc4CC(=O)O)oc23)c1 [Compound 29b, 2-(2-((7-(3-(aminomethyl)phenyl)-5-(hydroxymethyl)benzofuran-2-yl)methoxy)phenyl)acetic acid] | < 1000 nM
16 | NCc1cccc(-c2ccc3occ(COc4cc(C(F)(F)F)ccc4CC(=O)O)c3c2)c1 [Compound 118d, 2-(2-((5-(3-(aminomethyl)phenyl)benzofuran-3-yl)methoxy)-4-(trifluoromethyl)phenyl)acetic acid] | < 1000 nM
17 | Cn1nc(Nc2ccccc2CC(=O)O)c2cc(-c3cccc(CN)c3)ccc21 [Compound 77d, 2-(2-((5-(3-(aminomethyl)phenyl)-1-methyl-1H-indazol-3-yl)amino)phenyl)acetic acid] | > 10000 nM
18 | NCc1cccc(-c2cc(NCc3cccnc3)c3occ(COc4ccccc4CC(=O)O)c3c2)c1 [Compound 187d, 2-(2-((5-(3-(aminomethyl)phenyl)-7-((pyridin-3-ylmethyl)amino)benzofuran-3-yl)methoxy)phenyl)acetic acid] | < 1000 nM
19 | CC(C)(C)OC(=O)Cc1ccccc1OCc1cc2cc(COc3ccccc3CC(=O)O)cc(-c3cccc(CN)c3)c2o1 [Compound 24a, 2-(2-((7-(3-(aminomethyl)phenyl)-2-((2-(2-(tert-butoxy)-2-oxoethyl)phenoxy)methyl)benzofuran-5-yl)methoxy)phenyl)acetic acid] | < 1000 nM
20 | NCc1cccc(-c2cc(OCC3CC3)c3occ(COc4ccccc4CC(=O)O)c3c2)c1 [Compound 159f, 2-(2-((5-(3-(aminomethyl)phenyl)-7-(cyclopropylmethoxy)benzofuran-3-yl)methoxy)phenyl)acetic acid] | < 1000 nM
21 | NCc1cccc(-c2ccc3onc(COc4ccccc4CC(=O)O)c3c2)c1 [Compound 88e, 2-(2-((5-(3-(aminomethyl)phenyl)benzo[d]isoxazol-3-yl)methoxy)phenyl)acetic acid] | < 1000 nM
22 | COc1ccc(CC(=O)O)c(OCc2coc3ccc(-c4ccnc(CN)c4F)cc23)c1 [Compound 71d, 2-(2-((5-(2-(aminomethyl)-3-fluoropyridin-4-yl)benzofuran-3-yl)methoxy)-4-methoxyphenyl)acetic acid] | < 1000 nM
23 | Cc1cccc(-c2cc(-c3cccc(CN)c3)cc3c(COc4ccccc4CC(=O)O)coc23)c1 [Compound 197c, 2-(2-((5-(3-(aminomethyl)phenyl)-7-(m-tolyl)benzofuran-3-yl)methoxy)phenyl)acetic acid] | < 1000 nM

Now from value to compound:

Row | IC50 | SMILES
24 | < 1000 nM | CCCc1oc2ccc(-c3cccc(CN)c3F)cc2c1COc1cc(OC)ccc1CC(=O)O [Compound 297b, 2-(2-((5-(3-(aminomethyl)-2-fluorophenyl)-2-propylbenzofuran-3-yl)methoxy)-4-methoxyphenyl)acetic acid]
25 | < 1000 nM | NCc1cccc(-c2cc(C(O)C(F)(F)F)c3occ(COc4ccccc4CC(=O)O)c3c2)c1 (centres unmarked) [Compound 257h, 2-(2-((5-(3-(aminomethyl)phenyl)-7-(2,2,2-trifluoro-1-hydroxyethyl)benzofuran-3-yl)methoxy)phenyl)acetic acid]
26 | < 1000 nM | NCc1cccc(-c2cc(OCCC3CCOCC3)c3occ(COc4ccccc4CC(=O)O)c3c2)c1 [Compound 249f, 2-(2-((5-(3-(aminomethyl)phenyl)-7-(2-(tetrahydro-2H-pyran-4-yl)ethoxy)benzofuran-3-yl)methoxy)phenyl)acetic acid]
27 | < 1000 nM | CCc1oc2ccc(-c3cccc(CN)c3)cc2c1COc1ccccc1CC(=O)O [Compound 226c, 2-(2-((5-(3-(aminomethyl)phenyl)-2-ethylbenzofuran-3-yl)methoxy)phenyl)acetic acid]
28 | < 1000 nM | CCc1oc2ccc(-c3cccc(CN)c3)cc2c1COc1cc(C)ccc1CC(=O)O [Compound 319c, 2-(2-((5-(3-(aminomethyl)phenyl)-2-ethylbenzofuran-3-yl)methoxy)-4-methylphenyl)acetic acid]
29 | > 10000 nM | CC(C)n1nc(C(Oc2ccccc2CC(=O)O)c2ccccc2)c2cc(-c3cccc(CN)c3)ccc21 (centres unmarked) [Compound 228e, 2-(2-((5-(3-(aminomethyl)phenyl)-1-isopropyl-1H-indazol-3-yl)(phenyl)methoxy)phenyl)acetic acid]
30 | > 10000 nM | CC(C)n1nc(COc2ccccc2CC(=O)O)c2cc(-c3cc(CN)cc(C4CCN(C)CC4)c3)ccc21 [Compound 333f, 2-(2-((5-(3-(aminomethyl)-5-(1-methylpiperidin-4-yl)phenyl)-1-isopropyl-1H-indazol-3-yl)methoxy)phenyl)acetic acid]
31 | < 1000 nM | COc1ccc(CC(=O)O)c(OCc2c(C)oc3c(C4CC4)cc(-c4cccc(CN)c4)cc23)c1 [Compound 273j, 2-(2-((5-(3-(aminomethyl)phenyl)-7-cyclopropyl-2-methylbenzofuran-3-yl)methoxy)-4-methoxyphenyl)acetic acid]
32 | 1000 to 10000 nM | COc1c(CN)cccc1-c1cc2c(COc3ccccc3CC(=O)O)cccc2o1 [Compound 300d, 2-(2-((2-(3-(aminomethyl)-2-methoxyphenyl)benzofuran-4-yl)methoxy)phenyl)acetic acid]
33 | 1000 to 10000 nM | COc1c(-c2ccc3c(c2)c(COc2ccccc2CC(=O)O)nn3C2CCCC2)ccnc1CN [Compound 327d, 2-(2-((5-(2-(aminomethyl)-3-methoxypyridin-4-yl)-1-cyclopentyl-1H-indazol-3-yl)methoxy)phenyl)acetic acid]
34 | < 1000 nM | COc1ccc(CC(=O)O)c(OCc2c(C(C)O)oc3ccc(-c4cccc(CN)c4)cc23)c1 (centres unmarked) [Compound 217c, 2-(2-((5-(3-(aminomethyl)phenyl)-2-(1-hydroxyethyl)benzofuran-3-yl)methoxy)-4-methoxyphenyl)acetic acid]
35 | < 1000 nM | COc1ccc(CC(=O)O)c(OCc2c(C)oc3ccc(-c4cccc([C@H](C)N)c4)cc23)c1 [Compound 240b, (S)-2-(2-((5-(3-(1-aminoethyl)phenyl)-2-methylbenzofuran-3-yl)methoxy)-4-methoxyphenyl)acetic acid]
